Columns and labels:
Dihydrofolate reductase = target: T1, Dihydrofolate reductase (Homo sapiens, UniProt P00374); experiment: Inhibition of dihydrofolate reductase (unknown origin) using dihydrofolic acid as substrate by spectrophotometry
T1 sequence (P00374 whole entry): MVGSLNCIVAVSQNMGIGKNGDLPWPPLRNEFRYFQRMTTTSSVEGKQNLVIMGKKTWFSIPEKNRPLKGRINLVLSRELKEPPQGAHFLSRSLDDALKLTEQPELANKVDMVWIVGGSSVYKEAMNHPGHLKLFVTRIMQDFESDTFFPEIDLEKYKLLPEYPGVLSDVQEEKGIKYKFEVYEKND

Enterococcus faecalis [1] = experiment: Antibacterial activity against Streptococcus faecalis ATCC 8043; assay type: organism-based
Enterococcus faecalis [2] = experiment: Antibacterial activity against Streptococcus faecalis ATCC 8043 at 1 ug/ml; assay type: organism-based

Row | IC50 (Dihydrofolate reductase) | Compound | Activity (Enterococcus faecalis [1]) | Activity (Enterococcus faecalis [2])
1 | 377 µM | CC1=Nc2c(O)nc(N)nc2OC1C (configuration not stated) | Toxic | –
2 | – | Nc1nc(O)c2c(n1)OC(c1ccccc1)C(c1ccccc1)=N2 (configuration not stated) | Toxic | –
3 | – | CC1Oc2nc(N)nc(O)c2N=C1c1ccccc1 (configuration not stated) | Toxic | –
4 | 740 µM | CC1=Nc2c(O)nc(N)nc2OC1c1ccccc1 (configuration not stated) | Toxic | –
5 | 57 µM | Nc1nc(O)c2c(n1)OCC(c1ccccc1)=N2 | Toxic | –
6 | 242 µM | CC1=Nc2c(O)nc(N)nc2OC1 | Toxic | –
7 | – | Nc1nc(O)c2c(n1)OCC(Cc1ccccc1)=N2 | Toxic | –
8 | – | Nc1nc(O)c2c(n1)OCC(CCc1ccccc1)=N2 | Toxic | –
9 | – | Nc1nc(O)c2c(n1)OCC(CCCc1ccccc1)=N2 | Toxic | –
10 | – | Nc1nc(O)c2c(n1)OCC(CCCCc1ccccc1)=N2 | Toxic | –
11 | 11 µM | CCCCCC1=Nc2c(O)nc(N)nc2OC1 | Toxic | –
12 | 903 µM | CC1=Nc2c(N)nc(N)nc2OC1C (configuration not stated) | Toxic | –
13 | – | Nc1nc(N)c2c(n1)OC(c1ccccc1)C(c1ccccc1)=N2 (configuration not stated) | Toxic | –
14 | 168 µM | Nc1nc(N)c2c(n1)OCC(c1ccccc1)=N2 | Toxic | –
15 | – | CN(Cc1cnc2nc(N)nc(N)c2n1)c1ccc(C(=O)N[C@@H](CCC(=O)O)C(=O)O)cc1 [METHOTREXATE] | – | Toxic
